Data published in patent publication US11246834B2, “Nutraceutical or pharmaceutical composition for use in the treatment of polycystic ovary syndrome or of diseases or disorders related thereto” (S&R FARMACEUTICI S.P.A., priority 2016, dated 2022).

Assays:
HEK293 cells [1] = test: MTT test of cellular metabolism under hydrogen peroxide oxidative stress; assay type: cell-based, Human; conditions: HEK293, 300 μM hydrogen peroxide; 40 μM myoinositol + 100 μM D-chiro inositol and/or 10 μM resveratrol
Protocol: (§1) The measures have been performed in triplicate. Left (MTT) and (cell count). Human embryonic kidney HEK293 cells were grown in adherence in a growth medium consisting of DMEM supplemented with 10% fetal bovine serum (FBS) for 24 hours before being treated with 300 μM hydrogen peroxide in the presence of inositols (MI-D-chirol, 40 μM myoinositol and 100 μM D-chiro inositol, molar ratio MI/D-ChiroI=0.4) or resveratrol (10 μM) or in a combination of inositol and resveratrol. The effects of treatments on cellular metabolism were evaluated by the MTT test, while on the proliferation by cell count in Burker's chamber and all effects were compared with growing cells under controlled conditions (DMEN+10% FBS). The inositol concentrations were chosen based on the myo-inositol (MI) plasma concentration (26), and considering the molar ratio MI/D-Chirol=0.4 according to the invention, while the resveratrol concentration (10 μM) was chosen considering the plasma concentration expected after a treatment regime with resveratrol supported on hydroxide such as that from […]. […] Oxidative stress aggravates the pathological state of PCOS along with hormonal imbalance (27).

HEK293 cells [2] = test: Cell count in Burker's chamber (proliferation) under hydrogen peroxide oxidative stress; assay type: cell-based, Human; conditions: HEK293, 300 μM hydrogen peroxide; 40 μM myoinositol + 100 μM D-chiro inositol and/or 10 μM resveratrol
Protocol: as §1

## Oc1ccc(C=Cc2cc(O)cc(O)c2)cc1 [resveratrol]
HEK293 cells [1]
  effect on the anti-proliferative effect of oxidative stress, metabolic activity (MTT): only partially counteracted
HEK293 cells [2]
  effect on the anti-proliferative effect of oxidative stress, cell number (cell count): only partially counteracted
